Columns and labels:
[1] = Stability and uniformity of high-load glufosinate-ammonium formulation (FIG. 1); type: physicochemical; conditions: 1:1 mixture glufosinate-ammonium active and ACAR 7053 (C8 ether sulfate adjuvant), hydrotrope present, FIG. 1C
From the text: The unique structure of the monoalkyl sulfosuccinates of structure (I) renders them the capability of compatibilizing or stabilizing the highly concentrated components in the pesticide/herbicide formulation. Such capability is best illustrated by the performance of monoalkylsulfosuccinates, particularly of sodium monobutyl sulfosuccinate in the high load glufosinate-ammonium formulations. In these formulations, the active loading is at the highest (280 g/l). As the active content increases, the adjuvant content increases and the water content is reduced. Consequently, there is not enough water to solubilize both the herbicide active and the adjuvant. Without the action of a hydrotrope, the two components would separate.
Without hydrotrope, the formulation is a hazy mixture when freshly mixed (FIG. 1A) that separates into two layers upon standing (FIG. 1B).

[2] = Designed experiment: percentage of separation of aqueous mixtures of pesticide, adjuvant and hydrotrope (FIG. 2 ternary diagram); type: physicochemical; conditions: pesticide formulation containing AGAR 7053 as adjuvant
From the text: The performance of the sodium monobutyl sulfosuccinate as hydrotrope for pesticide formulation containing the AGAR 7053 as adjuvant was also confirmed by the results of a designed experiment.
The numbers associated with the small colored bar in the upper left hand corner of the Figure give the percentage of separation in the samples. The colors in the bar are related to the colored regions in the ternary diagram. As the regions in the graph go from red to blue the percentage of separation goes to zero.

CCCCOC(=O)C(CC(=O)[O-])S(=O)(=O)O.[Na+] (stereo not drawn) [sodium monobutyl sulfosuccinate]
appearance of formulation when freshly mixed [1]: clear
stability of formulation after prolonged standing [1]: retains that clarity and uniformity
performance as hydrotrope (separation of samples) [2]: performed as a hydrotrope over a wide range of concentrations

Source: patent publication US9307757B2, “Monoalkyl sulfosuccinates in pesticide formulations and applications” (AKZO NOBEL CHEMICALS INTERNATIONAL B.V., priority 2009, dated 2016)
